Test results as given in paper PMC4182091, “A Common Minimal Motif for the Ligands of HLA-B*27 Class I Molecules” (PLoS ONE, 2014).
Like-named read-outs stand apart in the source and are kept apart here. Ends that are not written are not given here.

Experiments:
Format in all cases: cell-based
HLA-B*2706 = molecular target: T1, HLA-B*2706 (Homo sapiens, UniProt P01889, A235G/D201E/E204Q/G107R/H137Y/K202T/N104T/N87E/Q56L/Q94K/R106L/R155S/R180L/S121N/S48T/Y33H/Y91C); assay: HLA/peptide complex stability assay, RMA-S cells transfected with HLA-B*2706; conditions: for fluorescence index, B*2706: peptide 200 µM
T1 construct: expressed in transfected cells; host or cells: RMA-S (TAP-deficient murine cell line)

HLA-B*2701 = molecular target: T2, HLA-B*2701 (Homo sapiens, UniProt P01889, D138H/D201E/D98Y/E176V/E204Q/G107R/H137Y/K202T/L105A/N104T/N87E/Q56L/Q94K/R106L/R155S/R180L/S101N/S121N/S48T/Y140D/Y33H/Y91C); assay: HLA/peptide complex stability assay, RMA-S cells transfected with HLA-B*2701; conditions: for fluorescence index, B*2701: peptide 200 µM
T2 construct: expressed in transfected cells; host or cells: RMA-S (TAP-deficient murine cell line)

HLA-B*2705 = molecular target: T3, HLA-B*2705 (Homo sapiens, UniProt P01889, D138H/D201E/E176V/E204Q/G107R/H137Y/K202T/N104T/N87E/Q56L/Q94K/R106L/R155S/R180L/S101D/S121N/S48T/Y140D/Y33H/Y91C); assay: HLA/peptide complex stability assay, RMA-S cells transfected with HLA-B*2705; conditions: for fluorescence index, B*2705: peptide 200 µM
T3 construct: expressed in transfected cells; host or cells: RMA-S (TAP-deficient murine cell line)

HLA-B*2703 = molecular target: T4, HLA-B*2703 (Homo sapiens, UniProt P01889, D138H/D201E/E176V/E204Q/G107R/H137Y/K202T/N104T/N87E/Q56L/Q94K/R106L/R155S/R180L/S101D/S121N/S48T/Y140D/Y33H/Y83H/Y91C); assay: HLA/peptide complex stability assay, RMA-S cells transfected with HLA-B*2703; conditions: for fluorescence index, B*2703: peptide 200 µM
T4 construct: expressed in transfected cells; host or cells: RMA-S (TAP-deficient murine cell line)

HLA-B*2709 = molecular target: T5, HLA-B*2709 (Homo sapiens, UniProt P01889, D138H/D201E/E176V/E204Q/G107R/H137Y/K202T/N104T/N87E/Q56L/Q94K/R106L/R155S/R180L/S101D/S121N/S48T/Y140H/Y33H/Y91C); assay: HLA/peptide complex stability assay, RMA-S cells transfected with HLA-B*2709; conditions: for fluorescence index, B*2709: peptide 200 µM
T5 construct: expressed in transfected cells; host or cells: RMA-S (TAP-deficient murine cell line)

HLA-B*2704 = HLA-B*2704 (Homo sapiens, UniProt P01889, A235G/D138H/D201E/E204Q/G107R/H137Y/K202T/N104T/N87E/Q56L/Q94K/R106L/R155S/R180L/S121N/S48T/Y140D/Y33H/Y91C); assay: HLA/peptide complex stability assay, RMA-S cells transfected with HLA-B*2704; conditions: for fluorescence index, B*2704: peptide 200 µM
HLA-B*2702 = HLA-B*2702 (Homo sapiens, UniProt P01889, D138H/D201E/E176V/E204Q/G107R/H137Y/K202T/L105A/N104I/N87E/Q56L/Q94K/R106L/R155S/R180L/S101N/S121N/S48T/Y140D/Y33H/Y91C); assay: HLA/peptide complex stability assay, RMA-S cells transfected with HLA-B*2702; conditions: for fluorescence index, B*2702: peptide 200 µM
[1] = mean ± S.D. of three to five independent experiments, SD
[2] = relative affinity (EC50 class), B*2706
[3] = relative affinity (EC50 class), B*2701
[4] = relative affinity (EC50 class), B*2705
[5] = relative affinity (EC50 class), B*2703
[6] = relative affinity (EC50 class), B*2709
[7] = relative affinity (EC50 class), B*2704
[8] = relative affinity (EC50 class), B*2702

Sequence	EC50 (HLA-B*2706; [2]) [µM]	EC50 (HLA-B*2701; read-out: EC50, B*2701) [µM]	EC50 (HLA-B*2701; [3]) [µM]	relative MHC class I affinity according to the EC50 value, in words (high, medium, low) (HLA-B*2705)	EC50 (HLA-B*2705; EC50, B*2705, SD) [µM]	EC50 (HLA-B*2703; EC50, B*2703, SD) [µM]	EC50 (HLA-B*2703; [5]) [µM]	EC50 (HLA-B*2709; EC50, B*2709, SD) [µM]	EC50 (HLA-B*2709; [6]) [µM]	EC50 (HLA-B*2704; EC50, B*2704, SD) [µM]	EC50 (HLA-B*2704; [7]) [µM]	EC50 (HLA-B*2702; [8]) [µM]	EC50 (HLA-B*2706; EC50, B*2706, SD) [µM]	EC50 (HLA-B*2702; EC50, B*2702, SD) [µM]	further results
ARANNVLKNEM [A1-NP 184-194, monosubstituted Ala analog of HRSV NP 184-194, […]]	–	–	–	–	–	–	–	–	–	–	–	–	–	–	fluorescence index, B*2706 (HLA-B*2706; [1]): 3.0±0.3; fluorescence index, B*2701 (HLA-B*2701; [1]): 2.0±0.1; fluorescence index, B*2705 (HLA-B*2705; [1]): 2.4±0.3; fluorescence index, B*2703 (HLA-B*2703; [1]): 1.4±0.1; fluorescence index, B*2709 (HLA-B*2709; [1]): 1.8±0.1; fluorescence index, B*2704 (HLA-B*2704; [1]): 2.2±0.2; fluorescence index, B*2702 (HLA-B*2702; [1]): 2.0±0.3
ARYKGLLPKDI [A1-NP 195-205, monosubstituted Ala analog of HRSV NP 195-205, […]]	–	–	–	–	–	–	–	–	–	–	–	–	–	–	fluorescence index, B*2706 (HLA-B*2706; [1]): 2.7±0.3; fluorescence index, B*2701 (HLA-B*2701; [1]): 1.9±0.1; fluorescence index, B*2705 (HLA-B*2705; [1]): 2.4±0.3; fluorescence index, B*2703 (HLA-B*2703; [1]): 2.1±0.2; fluorescence index, B*2709 (HLA-B*2709; [1]): 1.8±0.2; fluorescence index, B*2704 (HLA-B*2704; [1]): 2.2±0.3; fluorescence index, B*2702 (HLA-B*2702; [1]): 1.8±0.1
GRNEVFSNK [L 2089-2097]	> 200	> 200	> 200	medium	32 ± 6	71 ± 28	61 to 200	68 ± 24	61 to 200	169 ± 57	61 to 200	> 200	–	–	EC50 (HLA-B*2706; EC50, B*2706): > 200 µM; EC50 (HLA-B*2705; [4]): 20 to 60 µM; EC50 (HLA-B*2702; EC50, B*2702): > 200 µM
HRFIYLINH [NS2 37-45]	20 to 60	> 200	> 200	high	7 ± 4	10 ± 5	–	33 ± 9	20 to 60	78 ± 33	61 to 200	61 to 200	45 ± 19	77 ± 14	–
HRQDINGKEM [NP 100-109]	–	–	> 200	medium	50 ± 15	96 ± 43	61 to 200	24 ± 7	20 to 60	67 ± 27	61 to 200	61 to 200	3 ± 2	132 ± 53	EC50 (HLA-B*2701; EC50, B*2701): > 200 µM; EC50 (HLA-B*2705; [4]): 20 to 60 µM
KRAVGIGAL [HIV gp160 500-508, reference compound]	–	–	–	–	–	–	–	–	–	–	–	–	–	–	EC50 (HLA-B*2706; Table 2, peptide concentration at 50% of maximum fluorescence, range 0.01–200 µM, transfected RMA-S cells, flow cytometry, mean ± S.D. of three to five independent experiments, - = no statistical difference in fluorescence index to negative control, SD, read-out: EC50, B*2706): 1 ± 1 µM; EC50 (HLA-B*2701; Table 2, peptide concentration at 50% of maximum fluorescence, range 0.01–200 µM, transfected RMA-S cells, flow cytometry, mean ± S.D. of three to five independent experiments, - = no statistical difference in fluorescence index to negative control, SD, read-out: EC50, B*2701): 17 ± 3 µM; EC50 (HLA-B*2705; Table 2, peptide concentration at 50% of maximum fluorescence, range 0.01–200 µM, transfected RMA-S cells, flow cytometry, mean ± S.D. of three to five independent experiments, - = no statistical difference in fluorescence index to negative control, SD, read-out: EC50, B*2705): 12 ± 3 µM; EC50 (HLA-B*2703; Table 2, peptide concentration at 50% of maximum fluorescence, range 0.01–200 µM, transfected RMA-S cells, flow cytometry, mean ± S.D. of three to five independent experiments, - = no statistical difference in fluorescence index to negative control, SD, read-out: EC50, B*2703): 14 ± 7 µM; EC50 (HLA-B*2709; Table 2, peptide concentration at 50% of maximum fluorescence, range 0.01–200 µM, transfected RMA-S cells, flow cytometry, mean ± S.D. of three to five independent experiments, - = no statistical difference in fluorescence index to negative control, SD, read-out: EC50, B*2709): 8 ± 1 µM; EC50 (HLA-B*2704; Table 2, peptide concentration at 50% of maximum fluorescence, range 0.01–200 µM, transfected RMA-S cells, flow cytometry, mean ± S.D. of three to five independent experiments, - = no statistical difference in fluorescence index to negative control, SD, read-out: EC50, B*2704): 24 ± 8 µM; EC50 (HLA-B*2704; Table 3, classes of EC50 from stabilization assay in transfected RMA-S cells, read-out: relative affinity (EC50 class), B*2704): 20 to 60 µM; EC50 (HLA-B*2702; Table 2, peptide concentration at 50% of maximum fluorescence, range 0.01–200 µM, transfected RMA-S cells, flow cytometry, mean ± S.D. of three to five independent experiments, - = no statistical difference in fluorescence index to negative control, SD, read-out: EC50, B*2702): 16 ± 6 µM
KRLPADVLKK [M2 150-159]	> 200	> 200	> 200	high	18 ± 3	78 ± 10	61 to 200	22 ± 9	20 to 60	73 ± 9	61 to 200	61 to 200	–	136 ± 63	EC50 (HLA-B*2706; EC50, B*2706): > 200 µM
KRYKGLLPKDI [NP 195-205]	–	–	–	high	7 ± 5	20 ± 11	–	7 ± 2	–	16 ± 3	–	–	1 ± 1	9 ± 1	EC50 (HLA-B*2701; EC50, B*2701, SD): 8 ± 1 µM
LRNEESEKMAK [P 198-208]	> 200	> 200	> 200	low affinity	98 ± 35	–	> 200	86 ± 12	61 to 200	–	> 200	> 200	–	–	EC50 (HLA-B*2706; EC50, B*2706): > 200 µM; EC50 (HLA-B*2705; [4]): 61 to 200 µM; EC50 (HLA-B*2703; EC50, B*2703): > 200 µM; EC50 (HLA-B*2704; read-out: EC50, B*2704): > 200 µM; EC50 (HLA-B*2702; read-out: EC50, B*2702): > 200 µM
RRAAAAAAAI [RRA7I]	–	–	–	–	–	7 ± 5	–	2 ± 1	–	–	–	–	–	28 ± 16	EC50 (HLA-B*2706; SD): 2 ± 1 µM; EC50 (HLA-B*2701; SD): 7 ± 2 µM; EC50 (HLA-B*2705; SD): 4 ± 3 µM; EC50 (HLA-B*2704; SD): 7 ± 2 µM; EC50 (HLA-B*2702; read-out: relative affinity (EC50 class), B*2702): 20 to 60 µM
RRANNVLKNEA [A11-NP 184-194, monosubstituted Ala analog of HRSV NP 184-194, […]]	–	–	–	–	–	–	–	–	–	–	–	–	–	–	fluorescence index, B*2706 (HLA-B*2706; [1]): 2.7±0.2; fluorescence index, B*2701 (HLA-B*2701; [1]): 1.1±0.1; fluorescence index, B*2705 (HLA-B*2705; [1]): 2.1±0.1; fluorescence index, B*2703 (HLA-B*2703; [1]): 1.7±0.2; fluorescence index, B*2709 (HLA-B*2709; [1]): 1.8±0.1; fluorescence index, B*2704 (HLA-B*2704; [1]): 2.0±0.2; fluorescence index, B*2702 (HLA-B*2702; [1]): 1.7±0.1
RRANNVLKNEM [NP 184-194]	–	–	20 to 60	high	20 ± 8	60 ± 29	20 to 60	7 ± 1	–	19 ± 10	–	20 to 60	2 ± 1	43 ± 27	EC50 (HLA-B*2701; EC50, B*2701, SD): 39 ± 9 µM
